Laboratory results published in patent US20240109917A1 (ACTELION PHARMACEUTICALS LTD, priority 2020, published 2024).

What was measured:
[1] = molecular target: Tb-labeled inactive PDGFRβ (Homo sapiens (Human), UniProt P09619); assay: PDGFRβ LanthaScreen Assay; format: binding; details: read-out: PDGFR Lantha IC50
[2] = molecular target: VEGFR2, unphosphorylated (Homo sapiens (Human), UniProt P35968); assay: VEGFR ADP GLO Assay; format: biochemical
[3] = molecular target: His6-TEV-PDGFRβ (557-1016) (Homo sapiens (Human), UniProt P09619); assay: PDGFRβ HTRF Assay; format: biochemical; details: read-out: PDGFR HTRF IC50
Sequence of His6-TEV-PDGFRβ (557-1016) (P09619 557-1016): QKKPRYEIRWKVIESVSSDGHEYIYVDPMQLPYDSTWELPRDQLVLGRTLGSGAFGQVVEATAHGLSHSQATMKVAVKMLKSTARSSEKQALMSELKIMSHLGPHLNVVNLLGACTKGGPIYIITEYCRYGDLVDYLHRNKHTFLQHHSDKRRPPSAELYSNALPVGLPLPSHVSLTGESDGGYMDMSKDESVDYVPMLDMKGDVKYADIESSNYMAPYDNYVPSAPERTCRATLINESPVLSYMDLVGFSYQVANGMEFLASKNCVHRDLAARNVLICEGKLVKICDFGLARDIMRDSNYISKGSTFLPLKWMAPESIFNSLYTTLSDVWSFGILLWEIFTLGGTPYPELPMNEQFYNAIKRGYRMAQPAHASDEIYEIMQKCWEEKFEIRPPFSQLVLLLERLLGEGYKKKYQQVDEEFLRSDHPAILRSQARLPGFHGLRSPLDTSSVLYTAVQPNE
Procedure, shortened: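 Human PDGFRβ (557-1016) pre-incubated with compound for 30 min at RT in pH 7.5 HEPES/MgCl2/EGTA/Brij-35/DTT buffer. Reaction started with ATP and TK-biotin peptide, run 3 h at RT, then quenched with EDTA-containing Eu-cryptate antibody/streptavidin-XL665. HTRF 665/620 nm ratio read after 60 min; percent inhibition relative to DMSO and 10 μM imatinib controls.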

Sequence of VEGFR2, unphosphorylated (P35968 20-1356): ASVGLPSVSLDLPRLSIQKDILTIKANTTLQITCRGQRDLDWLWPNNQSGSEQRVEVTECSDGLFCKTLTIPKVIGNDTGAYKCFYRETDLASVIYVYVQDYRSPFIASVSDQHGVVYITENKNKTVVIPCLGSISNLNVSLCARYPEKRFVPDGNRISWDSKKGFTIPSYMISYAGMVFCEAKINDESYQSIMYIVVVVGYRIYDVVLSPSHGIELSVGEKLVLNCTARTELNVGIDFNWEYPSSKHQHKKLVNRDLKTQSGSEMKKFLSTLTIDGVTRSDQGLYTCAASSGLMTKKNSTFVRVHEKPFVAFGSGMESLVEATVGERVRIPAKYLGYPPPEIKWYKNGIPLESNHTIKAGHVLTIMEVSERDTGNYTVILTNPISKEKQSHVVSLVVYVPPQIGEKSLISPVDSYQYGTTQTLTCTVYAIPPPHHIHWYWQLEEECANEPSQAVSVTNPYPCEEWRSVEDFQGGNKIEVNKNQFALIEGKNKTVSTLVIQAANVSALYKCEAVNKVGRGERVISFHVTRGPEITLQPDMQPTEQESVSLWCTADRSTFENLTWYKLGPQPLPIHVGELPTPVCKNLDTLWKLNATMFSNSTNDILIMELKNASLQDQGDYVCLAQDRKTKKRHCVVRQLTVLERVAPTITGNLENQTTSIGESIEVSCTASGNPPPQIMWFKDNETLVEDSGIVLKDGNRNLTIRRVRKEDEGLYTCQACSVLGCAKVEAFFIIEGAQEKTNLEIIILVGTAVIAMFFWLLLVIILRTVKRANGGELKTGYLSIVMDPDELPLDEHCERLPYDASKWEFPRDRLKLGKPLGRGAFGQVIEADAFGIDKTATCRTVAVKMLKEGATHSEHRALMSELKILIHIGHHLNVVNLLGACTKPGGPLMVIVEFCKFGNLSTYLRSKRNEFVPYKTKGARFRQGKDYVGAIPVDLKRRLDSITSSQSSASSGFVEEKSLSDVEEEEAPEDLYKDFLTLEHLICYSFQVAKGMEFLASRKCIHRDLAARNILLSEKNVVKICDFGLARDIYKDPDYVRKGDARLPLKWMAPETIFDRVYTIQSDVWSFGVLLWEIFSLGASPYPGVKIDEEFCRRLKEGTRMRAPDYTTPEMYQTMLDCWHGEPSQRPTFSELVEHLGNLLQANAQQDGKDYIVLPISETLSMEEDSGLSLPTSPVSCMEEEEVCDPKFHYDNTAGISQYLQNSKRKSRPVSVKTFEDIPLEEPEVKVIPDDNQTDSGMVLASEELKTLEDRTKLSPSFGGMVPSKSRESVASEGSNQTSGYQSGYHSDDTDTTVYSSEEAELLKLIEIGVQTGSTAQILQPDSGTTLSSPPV
Sequence of Tb-labeled inactive PDGFRβ (P09619 33-1106): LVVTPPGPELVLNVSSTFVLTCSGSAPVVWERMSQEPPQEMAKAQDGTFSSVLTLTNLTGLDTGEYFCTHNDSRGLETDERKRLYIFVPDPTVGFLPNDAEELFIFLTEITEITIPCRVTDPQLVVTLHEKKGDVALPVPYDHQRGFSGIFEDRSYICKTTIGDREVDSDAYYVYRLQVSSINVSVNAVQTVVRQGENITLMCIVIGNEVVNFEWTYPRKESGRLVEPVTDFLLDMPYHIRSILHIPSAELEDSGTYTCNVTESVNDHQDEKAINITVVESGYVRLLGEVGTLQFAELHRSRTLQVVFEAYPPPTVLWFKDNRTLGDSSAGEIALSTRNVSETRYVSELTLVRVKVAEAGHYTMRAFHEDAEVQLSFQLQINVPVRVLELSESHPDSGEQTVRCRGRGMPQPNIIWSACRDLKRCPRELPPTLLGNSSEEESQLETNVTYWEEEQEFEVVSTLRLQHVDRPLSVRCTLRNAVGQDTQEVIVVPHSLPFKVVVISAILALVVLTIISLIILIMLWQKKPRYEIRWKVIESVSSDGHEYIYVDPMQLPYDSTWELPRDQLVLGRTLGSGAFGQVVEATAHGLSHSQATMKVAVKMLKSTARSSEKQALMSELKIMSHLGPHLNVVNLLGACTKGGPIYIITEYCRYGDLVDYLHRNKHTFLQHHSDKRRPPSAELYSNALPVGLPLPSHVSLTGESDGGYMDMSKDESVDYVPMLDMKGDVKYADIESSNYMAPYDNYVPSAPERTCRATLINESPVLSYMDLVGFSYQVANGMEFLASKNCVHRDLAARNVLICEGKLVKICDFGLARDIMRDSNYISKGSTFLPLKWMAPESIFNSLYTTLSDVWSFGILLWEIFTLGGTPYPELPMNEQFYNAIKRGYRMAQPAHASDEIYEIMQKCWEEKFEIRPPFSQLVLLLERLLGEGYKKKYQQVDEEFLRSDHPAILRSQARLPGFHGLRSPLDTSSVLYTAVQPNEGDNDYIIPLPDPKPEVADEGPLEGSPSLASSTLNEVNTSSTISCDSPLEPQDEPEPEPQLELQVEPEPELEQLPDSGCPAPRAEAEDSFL

Compound	IC50 [1]	IC50 [2]	IC50 [3]
Cc1ncc(NC(=O)CN2CCc3ccncc3C2)cc1NC(=O)c1cnn2cc(-c3cnn(C)c3)sc12 [Example 23, N-(5-(2-(3,4-dihydro-2,7-naphthyridin-2 (1H)-yl)acetamido)-2-methylpyridin-3-yl)-2-(1-methyl-1H-pyrazol-4-yl)pyrazolo[5,1-b]thiazole-7-carboxamide]	1.3 nM	> 7500 nM	0.7 nM
Cc1ncc(NC(=O)CN2CCCC23COC3)cc1NC(=O)c1cnn2cc(-c3cnn(C)c3)sc12 [Example 20, N-(5-(2-(2-oxa-5-azaspiro[3.4]octan-5-yl)acetamido)-2-methyl-pyridin-3-yl)-2-(1-methyl-1H-pyrazol-4-yl)pyrazolo[5,1-b]thiazole-7-carboxamide]	8.2 nM	> 7500 nM	0.7 nM
COc1ncccc1-c1cn2ncc(C(=O)Nc3cc(NC(=O)CN4CCOC(C)(C)C4)cnc3C)c2s1 [Example 319, N-(5-(2-(2,2-dimethylmorpholino)acetamido)-2-methylpyridin-3-yl)-2-(2-methoxypyridin-3-yl)pyrazolo[5,1-b]thiazole-7-carboxamide]	1.8 nM	> 7500 nM	0.3 nM
Cc1ncc(NC(=O)CN2CCC3(CCCO3)C2)cc1NC(=O)c1cnn2cc(-c3cnn(C)c3)sc12 (stereo not drawn) [Example 21, N-(5-(2-(1-oxa-7-azaspiro[4.4]nonan-7-yl)acetamido)-2-methylpyridin-3-yl)-2-(1-methyl-1H-pyrazol-4-yl)pyrazolo[5,1-b]thiazole-7-carboxamide]	5.7 nM	> 7500 nM	0.7 nM
CC(=O)Nc1cncc(-c2cn3ncc(C(=O)Nc4cc(NC(=O)CN5CC(C)(C)C5)cnc4C)c3s2)c1 [Example 277, 2-(5-acetamidopyridin-3-yl)-N-(5-(2-(3,3-dimethylazetidin-1-yl)acetamido)-2-methylpyridin-3-yl)pyrazolo[5,1-b]thiazole-7-carboxamide]	5.7 nM	> 2500 nM	0.4 nM
Cc1ncc(NC(=O)OC[C@@H]2CCCN2C)cc1NC(=O)c1cnn2cc(-c3cccc4c3cnn4C)sc12 [Example 257, (S)-(1-methylpyrrolidin-2-yl)methyl (6-methyl-5-(2-(1-methyl-1H-indazol-4-yl)pyrazolo[5,1-b]thiazole-7-carboxamido)pyridin-3-yl)carbamate]	2.6 nM	> 2500 nM	0.2 nM
Cc1ncc(NC(=O)CN2CC(C)(C)C2)cc1NC(=O)c1cnn2cc(-c3cccc4c3cnn4C)sc12 [Example 286, N-(5-(2-(3,3-dimethylazetidin-1-yl)acetamido)-2-methylpyridin-3-yl)-2-(1-methyl-1H-indazol-4-yl)pyrazolo[5,1-b]thiazole-7-carboxamide]	1 nM	> 2500 nM	0.1 nM
Cc1ncc(NC(=O)CN2CC(C)(C)C2)cc1NC(=O)c1cnn2cc(-c3cnn(CS(C)(=O)=O)c3)sc12 [Example 265, N-(5-(2-(3,3-dimethylazetidin-1-yl)acetamido)-2-methylpyridin-3-yl)-2-(1-((methylsulfonyl)methyl)-1H-pyrazol-4-yl)pyrazolo[5,1-b]thiazole-7-carboxamide]	8.7 nM	> 7500 nM	0.5 nM
COCCn1cc(-c2cn3ncc(C(=O)Nc4cc(NC(=O)CN5CCC[C@@H]5C)cnc4C)c3s2)cn1 [Example 325, (S)-2-(1-(2-methoxyethyl)-1H-pyrazol-4-yl)-N-(2-methyl-5-(2-(2-methylpyrrolidin-1-yl)acetamido)pyridin-3-yl)pyrazolo[5,1-b]thiazole-7-carboxamide]	16.3 nM	> 7500 nM	0.8 nM
Cc1ncc(NC(=O)CN2CCCC(O)C2)cc1NC(=O)c1cnn2cc(-c3cnn(C)c3)sc12 (stereo not drawn) [Example 303, N-(5-(2-(3-hydroxypiperidin-1-yl)acetamido)-2-methylpyridin-3-yl)-2-(1-methyl-1H-pyrazol-4-yl)pyrazolo[5,1-b]thiazole-7-carboxamide]	5.8 nM	> 7500 nM	0.4 nM
Cc1ncc(NC(=O)CN2CC(C)(C)C2)cc1NC(=O)c1cnn2cc(-c3ccc(C4(O)COC4)cc3)sc12 [Example 272, N-(5-(2-(3,3-dimethylazetidin-1-yl)acetamido)-2-methylpyridin-3-yl)-2-(4-(3-hydroxyoxetan-3-yl)phenyl)pyrazolo[5,1-b]thiazole-7-carboxamide]	1.4 nM	> 7500 nM	0.2 nM
COCCn1cc(-c2cn3ncc(C(=O)Nc4cc(NC(=O)CN5CC(C)(C)C5)cnc4C)c3s2)cn1 [Example 261, N-(5-(2-(3,3-dimethylazetidin-1-yl)acetamido)-2-methylpyridin-3-yl)-2-(1-(2-methoxyethyl)-1H-pyrazol-4-yl)pyrazolo[5,1-b]thiazole-7-carboxamide]	4.9 nM	> 7500 nM	0.4 nM
Cc1ncc(NC(=O)CN(C)C2CCOCC2)cc1NC(=O)c1cnn2cc(-c3cnn(CC(N)=O)c3)sc12 [Example 300, 2-(1-(2-amino-2-oxoethyl)-1H-pyrazol-4-yl)-N-(2-methyl-5-(2-(methyl(tetrahydro-2H-pyran-4-yl)amino)acetamido)pyridin-3-yl)pyrazolo[5,1-b]thiazole-7-carboxamide]	12.4 nM	> 7500 nM	1.2 nM
Cc1ncc(NC(=O)C[C@@H]2CCCCN2C(C)C)cc1NC(=O)c1cnn2cc(-c3cnn(C)c3)sc12 [Example 305, (S)—N-(5-(2-(1-isopropylpiperidin-2-yl)acetamido)-2-methylpyridin-3-yl)-2-(1-methyl-1H-pyrazol-4-yl)pyrazolo[5,1-b]thiazole-7-carboxamide]	57.8 nM	> 7500 nM	2.1 nM
Cc1ncc(NC(=O)OC[C@@H]2CCCN2C)cc1NC(=O)c1cnn2cc(-c3cc[nH]c3)sc12 [Example 258, (S)-(1-methylpyrrolidin-2-yl)methyl (5-(2-(1H-pyrrol-3-yl)pyrazolo[5,1-b]thiazole-7-carboxamido)-6-methylpyridin-3-yl)carbamate]	4.2 nM	> 7500 nM	0.4 nM
Cc1ncc(NC(=O)CN2CC(C)(C)C2)cc1NC(=O)c1cnn2cc(-c3cnn(CCO)c3)sc12 [Example 290, N-(5-(2-(3,3-dimethylazetidin-1-yl)acetamido)-2-methylpyridin-3-yl)-2-(1-(2-hydroxyethyl)-1H-pyrazol-4-yl)pyrazolo[5,1-b]thiazole-7-carboxamide]	3.3 nM	> 7500 nM	0.4 nM
Cc1ncc(NC(=O)CN2CC(C)(C)C2)cc1NC(=O)c1cnn2cc(-c3cnn(CC#N)c3)sc12 [Example 266, 2-(1-(cyanomethyl)-1H-pyrazol-4-yl)-N-(5-(2-(3,3-dimethylazetidin-1-yl)acetamido)-2-methylpyridin-3-yl)pyrazolo[5,1-b]thiazole-7-carboxamide]	11.1 nM	> 7500 nM	0.7 nM
Cc1ncc(NC(=O)CN2CC(C)(C)C2)cc1NC(=O)c1cnn2cc(-c3cnn(C4CS(=O)(=O)C4)c3)sc12 [Example 262, N-(5-(2-(3,3-dimethylazetidin-1-yl)acetamido)-2-methylpyridin-3-yl)-2-(1-(1,1-dioxidothietan-3-yl)-1H-pyrazol-4-yl)pyrazolo[5,1-b]thiazole-7-carboxamide]	6.1 nM	> 7500 nM	0.5 nM
